Reference: ChEMBL document CHEMBL1629605, “Effect of a single dose of ritonavir on the pharmacokinetic behavior of elvucitabine, a nucleoside reverse transcriptase inhibitor, administered in healthy volunteers” (Antimicrob Agents Chemother, 2009)

Key:
[1] = Terminal half life in human at 20 mg administered under fasting condition; assay type: ADME, organism-based; settings: in vivo, read-out: beta t1/2 (converted)
[2] = Terminal half life in human at 20 mg administered under fasting condition presence of 300 mg of ritonavir; assay type: ADME, organism-based; settings: in vivo, read-out: beta t1/2 (converted)
[3] = AUC (0 to 24 hrs) in human at 20 mg administered under fasting condition; assay type: ADME, organism-based; parameters: time < 24 hr, dose 20 mg; settings: plasma
[4] = AUC (0 to t) in human at 20 mg administered under fasting condition; assay type: ADME, organism-based; settings: plasma
[5] = AUC (0 to infinity) in human at 20 mg administered under fasting condition; assay type: ADME, organism-based; parameters: dose 20 mg, time infinity; settings: plasma
[6] = Cmax in human at 20 mg administered under fasting condition; settings: in vivo
[7] = Clearance in human at 20 mg administered under fasting condition; assay type: ADME, organism-based; settings: in vivo
[8] = Tmax in human at 20 mg administered under fasting condition; assay type: ADME, organism-based; settings: in vivo
[9] = Half life in human at 20 mg administered under fasting condition; assay type: ADME, organism-based; settings: in vivo
[10] = AUC (0 to 24 hrs) in human at 20 mg administered under fasting condition in presence of 300 mg of ritonavir; assay type: ADME, organism-based; parameters: time < 24 hr, dose 20 mg; settings: plasma
[11] = AUC (0 to t) in human at 20 mg administered under fasting condition in presence of 300 mg of ritonavir; assay type: ADME, organism-based; settings: plasma
[12] = AUC (0 to infinity) in human at 20 mg administered under fasting condition in presence of 300 mg of ritonavir; assay type: ADME, organism-based; parameters: dose 20 mg, time infinity; settings: plasma
[13] = Apparent oral clearance in human at 20 mg administered under fasting condition; assay type: ADME, organism-based; settings: in vivo
[14] = Apparent oral clearance in human at 20 mg administered under fasting condition presence of 300 mg of ritonavir; assay type: ADME, organism-based; settings: in vivo
[15] = test system: Homo sapiens; experiment: Central volume of distribution with respect to the bioavailability in human at 20 mg administered under fasting condition presence of 300 mg of ritonavir; assay type: ADME, organism-based; settings: in vivo
[16] = test system: Homo sapiens; experiment: Distributional clearance with respect to the bioavailability in human at 20 mg administered under fasting condition; assay type: ADME, organism-based; settings: in vivo
[17] = test system: Homo sapiens; experiment: Distributional clearance with respect to the bioavailability in human at 20 mg administered under fasting condition presence of 300 mg of ritonavir; assay type: ADME, organism-based; settings: in vivo
[18] = test system: Homo sapiens; experiment: Peripheral volume of distribution with respect to the bioavailability in human at 20 mg administered under fasting condition; assay type: ADME, organism-based; settings: in vivo
[19] = test system: Homo sapiens; experiment: Peripheral volume of distribution with respect to the bioavailability in human at 20 mg administered under fasting condition presence of 300 mg of ritonavir; assay type: ADME, organism-based; settings: in vivo
[20] = Volume of distribution at steady state with respect to the bioavailability in human at 20 mg administered under fasting condition; assay type: ADME, organism-based; settings: in vivo, read-out: Vss/F
[21] = Volume of distribution at steady state with respect to the bioavailability in human at 20 mg administered under fasting condition presence of 300 mg of ritonavir; assay type: ADME, organism-based; settings: in vivo, read-out: Vss/F
[22] = Clearance in human at 20 mg administered under fasting condition in presence of 300 mg of ritonavir; assay type: ADME, organism-based; settings: in vivo
[23] = Tmax in human at 20 mg administered under fasting condition in presence of 300 mg of ritonavir; assay type: ADME, organism-based; settings: in vivo
[24] = Half life in human at 20 mg administered under fasting condition in presence of 300 mg of ritonavir; assay type: ADME, organism-based; settings: in vivo
[25] = Central volume of distribution with respect to the bioavailability in human at 20 mg administered under fasting condition; assay type: ADME, organism-based; settings: in vivo, read-out: Vc/F
[26] = test system: Homo sapiens; experiment: Time prior to start absorption at first absorption site in human at 20 mg administered under fasting condition; assay type: ADME, organism-based; settings: in vivo
[27] = test system: Homo sapiens; experiment: Time prior to start absorption at first absorption site in human at 20 mg administered under fasting condition presence of 300 mg of ritonavir; assay type: ADME, organism-based; settings: in vivo
[28] = test system: Homo sapiens; experiment: Time prior to start absorption at second absorption site in human at 20 mg administered under fasting condition; assay type: ADME, organism-based; settings: in vivo
[29] = test system: Homo sapiens; experiment: Time prior to start absorption at second absorption site in human at 20 mg administered under fasting condition presence of 300 mg of ritonavir; assay type: ADME, organism-based; settings: in vivo
[30] = test system: Homo sapiens; experiment: Absorption rate constant at first absorption site in human at 20 mg administered under fasting condition; assay type: ADME, organism-based; settings: in vivo
[31] = test system: Homo sapiens; experiment: Absorption rate constant at first absorption site in human at 20 mg administered under fasting condition presence of 300 mg of ritonavir; assay type: ADME, organism-based; settings: in vivo
[32] = test system: Homo sapiens; experiment: Absorption rate constant at second absorption site in human at 20 mg administered under fasting condition; assay type: ADME, organism-based; settings: in vivo
[33] = test system: Homo sapiens; experiment: Absorption rate constant at second absorption site in human at 20 mg administered under fasting condition presence of 300 mg of ritonavir; assay type: ADME, organism-based; settings: in vivo
[34] = clinical; settings: human, in vivo
Description: Cmax in human at 20 mg administered under fasting condition in presence of 300 mg of ritonavir

With `Nc1nc(=O)n([C@@H]2C=C[C@H](CO)O2)cc1F` [ELVUCITABINE] the half-life [1] was 58.6 h, the half-life [2] was 60.2 h and the AUC(0-t) at 24 h [3] was 732 ng·h/mL. The AUC(0-t) [4] was 1030 ng·h/mL, the AUC(0-inf) [5] was 1240 ng·h/mL and the Cmax [6] was 136 ng/mL. For the same compound, the clearance [7] was 293 mL/min, the Tmax [8] was 3.78 h and the half-life [9] was 59.1 h. The AUC(0-t) at 24 h [10] was 568 ng·h/mL, the AUC(0-t) [11] was 790 ng·h/mL and the AUC(0-inf) [12] was 979 ng·h/mL. The CL/F [13] was 297 mL/min, the CL/F [14] was 487 mL/min and the Vc/F [15] was 24.8 L. For the same compound, the CLd/F [16] was 16.3 L/h, the CLd/F [17] was 19.3 L/h and the Vp/F [18] was 703 L. For the same compound, the Vp/F [19] was 897 L, the Vd/F [20] was 729 L and the Vd/F [21] was 921 L. The clearance [22] was 467 mL/min, the Tmax [23] was 5.12 h and the half-life [24] was 54.2 h. It also gave a Vd/F [25] of 26.1 L, a Time [26] of 1.6 h and a Time [27] of 2.96 h. It also gave a Time [28] of 2.3 h, a Time [29] of 3.54 h and a ka [30] of 0.183 h⁻¹. The ka [31] was 0.127 h⁻¹, the ka [32] was 0.459 h⁻¹ and the ka [33] was 0.483 h⁻¹. For the same compound, the Cmax [34] was 102 ng/mL.
